The values below come from PubChem BioAssay (NCI).

Among the test systems are ACHN renal; T-47D breast; MDA-N; TK-10 renal; BT-549 breast; SK-OV-3 ovarian; MDA-MB-435; SR leukemia; XF 498 CNS; HOP-18 NSCLC; P388 leukemia; M19-MEL melanoma; DMS 273 small cell lung.
Common to all, as to assay: NCI tumour cell line growth inhibition, 48 h

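In this assay, cells in 96-well plates receive the compound at five concentrations for 48 hours. Endpoints are linearly interpolated between the surrounding concentrations. GI50 is the concentration that inhibits growth by half. At the TGI there is no net growth.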

Consider `CC1=CC(C)C/C=C/C2C3OC3(C)C(C)C3C(Cc4c[nH]c5ccccc45)NC(=O)C23C(=O)C=CC(=O)C1O` (configuration not stated), for which the TGI with ACHN renal was found to be 2.73 µM; in the assay with T-47D breast it was 3.76 µM; with MDA-N, 22.6 µM; with TK-10 renal it was 3.39 µM; in the assay on BT-549 breast it was 10.3 µM; in the assay on SK-OV-3 ovarian it was 25.2 µM. Also, the TGI in the assay on MDA-MB-435 is 46.6 µM.
Consider `CN(C)CCCNC(=O)c1cc2[nH]c3c(cnc4ccc([N+](=O)[O-])cc43)c(=O)c2n1C`, for which the GI50 in the assay on ACHN renal is 14.5 µM; in the assay with T-47D breast, 19.3 µM; in the assay with TK-10 renal, 14.3 µM; with SR leukemia, 14.5 µM; in the assay with BT-549 breast, 20.2 µM; in the assay with SK-OV-3 ovarian, 17.3 µM. The GI50 in the assay on MDA-MB-435 was 17.3 µM. Moreover, the TGI in the assay with ACHN renal came to 27.9 µM; in the assay on T-47D breast, 39.2 µM; in the assay on TK-10 renal, 28.2 µM; in the assay with SR leukemia it was 43.3 µM; in the assay with BT-549 breast, 43.2 µM; in the assay on SK-OV-3 ovarian it was 37.9 µM. In the assay on MDA-MB-435, this compound had a TGI of 33.6 µM.
Take `CC(=O)N(C)c1ccc(Nc2cc(C)[nH]c3ccc4ncnc4c23)cc1`: the TGI in the assay on ACHN renal was found to be 16.3 µM; in the assay on XF 498 CNS, 5.92 µM; in the assay with T-47D breast, 39.6 µM; with HOP-18 NSCLC it was 53.1 µM; with MDA-N it was 23.9 µM; in the assay on P388 leukemia, 49.2 µM. The TGI with TK-10 renal was 48.3 µM; in the assay with M19-MEL melanoma, 20.1 µM; in the assay on SR leukemia, 23 µM; with BT-549 breast, 24.5 µM; in the assay with SK-OV-3 ovarian, 35.8 µM; in the assay on DMS 273 small cell lung it was 24.3 µM. The compound further came in with a TGI in the assay with MDA-MB-435 of 23.3 µM.
On to `O=c1cnn(C/C=C/CBr)c(=O)[nH]1`, for which the TGI was determined as 37.1 µM in the assay on ACHN renal; 57 µM in the assay with T-47D breast; 33.3 µM in the assay with MDA-N; 42.8 µM with SR leukemia; 19.4 µM in the assay with BT-549 breast; 33.7 µM in the assay with MDA-MB-435.
Take `COc1ccc(C2COc3cc(OC(C)=O)c(OC(C)=O)cc3C2)cc1` (configuration not stated): the TGI with XF 498 CNS is 23.9 µM; in the assay on HOP-18 NSCLC, 19.3 µM; with P388 leukemia, 33.5 µM; with M19-MEL melanoma, 37.7 µM; in the assay on SK-OV-3 ovarian, 82.3 µM; in the assay on DMS 273 small cell lung, 52.7 µM.
With `O=C(O)c1ccc(Nc2c3ccccc3nc3ccccc23)cc1`, the TGI was greater than 100 µM with HOP-18 NSCLC; greater than 46.6 µM with P388 leukemia; greater than 100 µM in the assay with M19-MEL melanoma; greater than 100 µM with SK-OV-3 ovarian; greater than 100 µM with DMS 273 small cell lung.
As to `c1nc(OCC2CCCCC2)c2[nH]cnc2n1`, the TGI with ACHN renal, in the assay on MDA-N, with TK-10 renal, in the assay with BT-549 breast, in the assay with SK-OV-3 ovarian and with MDA-MB-435 was greater than 100 µM in each case.
On to `CC(C)(C)[Si](OC1CC(n2cnc3c(N)ncnc32)OC1CO)(c1ccccc1)c1ccccc1` (configuration not stated), for which the TGI with ACHN renal was 31.8 µM; with XF 498 CNS, 51.3 µM; with HOP-18 NSCLC, greater than 100 µM; in the assay on TK-10 renal, 53.4 µM; in the assay on M19-MEL melanoma, 42.9 µM; with SR leukemia, 43.8 µM. Further, the TGI stood at 32.7 µM in the assay on SK-OV-3 ovarian and 35.8 µM in the assay with DMS 273 small cell lung.
In the case of `O=C(O)CC(CC(=O)O)C(=O)O`, the TGI in the assay with ACHN renal, in the assay on T-47D breast, with MDA-N, with TK-10 renal, with SR leukemia and in the assay on BT-549 breast was greater than 100 µM throughout. For the same compound, the TGI in the assay with SK-OV-3 ovarian and in the assay with MDA-MB-435 was greater than 100 µM in each case.
In the case of `Cc1cc(C)n(C(=C(C(Cl)=C(Cl)Cl)[N+](=O)[O-])n2nc(C)cc2C)n1`, the TGI was found to be 8.8 µM in the assay with ACHN renal; 23.1 µM in the assay on T-47D breast; 13.8 µM in the assay with MDA-N; 9.36 µM with TK-10 renal; 16.3 µM in the assay with BT-549 breast; 8.69 µM in the assay with SK-OV-3 ovarian. For the same compound, the TGI in the assay on MDA-MB-435 worked out at 5.56 µM.
In the case of `O=C1C(Cl)N(c2ccc(Cl)cc2)C1c1c[nH]c2ccccc12` (configuration not stated), the TGI was found to be 31.3 µM in the assay with XF 498 CNS, 34.8 µM in the assay on TK-10 renal, 98.4 µM in the assay with M19-MEL melanoma and 39.4 µM with SR leukemia.
With `COc1ccc(N2C(=O)/C(=C(\C)c3cc4ccccc4oc3=O)N=C2c2cc([N+](=O)[O-])ccc2Cl)cc1`, the TGI in the assay with ACHN renal, in the assay on HOP-18 NSCLC, in the assay with M19-MEL melanoma, in the assay with SR leukemia and in the assay with SK-OV-3 ovarian was greater than 100 µM throughout.
Turning to `C/C(=N\NC(=S)N1CCCCC1)c1nc2ncccc2[nH]1`, the TGI is greater than 100 µM with ACHN renal; 42.4 µM with T-47D breast; 47.9 µM with MDA-N; 68.4 µM with TK-10 renal; 28.6 µM in the assay on SR leukemia; 28.3 µM with BT-549 breast. For the same compound, the TGI in the assay on SK-OV-3 ovarian was greater than 100 µM; in the assay on MDA-MB-435 it was 35 µM.
